Holding throughout (format): cell-based
One assay deals with S. aureus HH 127. Description: MIC in vitro, S. aureus HH 127. The settings on record: Staphylococcus aureus, HH127.
The test system of a further assay is Pseudomonas sp. HH 63. The assay can be described thus: MIC in vitro, Pseudomonas sp. HH 63. The settings on record: SP.HH63.
The subject of the next assay is Strep. pyog. C 203. The assay can be described thus: MIC in vitro, Strep. pyog. C 203.
In a further assay the test system is E. coli. HH 33779. Description: MIC in vitro, E. coli HH 33779. The settings on record: Escherichia coli.
For a further assay, the system named is Entero. aerogenes. The assay can be described thus: MIC in vitro, Entero. aerogenes. The settings on record: Klebsiella aerogenes.
A further assay deals with Strep. faecalis HH 34358. The assay can be described thus: MIC in vitro, Strep. faecalis HH 34358. To be noted: Enterococcus faecalis, HH34358.
For another assay, the system named is K. pneumo. SK 4200. Description: MIC in vitro, K. pneumo. SK 4200.
Where [1] appears, read: E. coli. HH 33779, read-out: MIC.

Structures are written as SMILES. Values after ≈ are worked out from the molar mass of the structure shown. Where two headings read alike, the source gives them in different places.

What is called MIC is the smallest concentration in the dilution series that meets the test's criterion for growth inhibition.

Consider `CC(=O)OCC1=C(C(=O)O)N2C(=O)C(NC(=O)CSC(F)(F)F)C2SC1` (stereo not drawn) [I, 7-trifluoromethylmercaptoacetamidocephalosporanic acid], for which the MIC was 0.4 µg/mL (≈ 0.965 µM) in the assay on S. aureus HH 127; below 200 µg/mL against Pseudomonas sp. HH 63; 0.1 µg/mL (≈ 0.241 µM) against Strep. pyog. C 203; 6.3 µg/mL (≈ 15.2 µM) in the assay on E. coli. HH 33779 (setting [1]); 50 µg/mL (≈ 121 µM) in the assay with Entero. aerogenes; 25 µg/mL (≈ 60.3 µM) against Strep. faecalis HH 34358. The same compound gave an MIC in the assay with K. pneumo. SK 4200 of 0.8 µg/mL (≈ 1.93 µM).
Consider `Cn1nnnc1SCC1=C(C(=O)O)N2C(=O)C(NC(=O)CSC(F)(F)F)[C@H]2SC1` (stereo partly drawn) [II, 7-Trifluoromethylmercaptoacetamido-3-(1-methyl-tetrazol-5-ylthiomethyl)-3-cephem-4-carboxylic acid], for which the minimum inhibitory concentration (MIC) with S. aureus HH 127 is 0.4 µg/mL (≈ 0.85 µM); against Pseudomonas sp. HH 63 it was below 200 µg/mL; with Strep. pyog. C 203, 0.1 µg/mL (≈ 0.213 µM); in the assay with E. coli. HH 33779 (setting [1]) it was 1.6 µg/mL (≈ 3.4 µM); in the assay on Entero. aerogenes, 1.6 µg/mL (≈ 3.4 µM); in the assay with Strep. faecalis HH 34358 it was 25 µg/mL (≈ 53.1 µM). The compound also returned an MIC against K. pneumo. SK 4200 of 0.8 µg/mL (≈ 1.7 µM).
Turning to `Cc1nnc(SCC2=C(C(=O)O)N3C(=O)C(NC(=O)CSC(F)(F)F)[C@H]3SC2)s1` (stereo partly drawn) [III, 7-trifluoromethylmercaptoacetamido-3-(5-methyl-1,3,4-thiadiazol-2-ylthiomethyl)-3-cephem-4-carboxylic acid], the MIC against S. aureus HH 127 is 0.4 µg/mL (≈ 0.822 µM); with Pseudomonas sp. HH 63, below 200 µg/mL; against Strep. pyog. C 203, 0.1 µg/mL (≈ 0.206 µM); in the assay with E. coli. HH 33779, 3.1 µg/mL (≈ 6.37 µM); against Entero. aerogenes, 6.3 µg/mL (≈ 12.9 µM); with Strep. faecalis HH 34358, 12.5 µg/mL (≈ 25.7 µM). The MIC against K. pneumo. SK 4200 was found to be 1.6 µg/mL (≈ 3.29 µM).

Values taken from patent US3943131A, “Trifluoromethylmercaptoacetamidocephalosporins” (SmithKline Corporation, priority 1974, dated 1976).
